From patent US20200032249A1, “LABELING, ISOLATION, & ANALYSIS OF RNA FROM RARE CELL POPULATIONS” (priority 2017, published 2020)

Test system: MDA231 cells expressing CD/UPRT
Experiment: Flura-tagged mRNA immunoprecipitation from MDA231 CD/UPRT cells co-cultured with mouse 4T1 cells, RT-PCR
Assay type: cell-based, human
Conditions: 12 h, 100-1000 MDA231 cells to 10^6 4T1 cells
Description: FIG. 1a-f. Labeling and purification of RNA by CD expression and 5-FC treatment. FIG. 1a—Schematic diagram showing RNA labeling using CD and 5-FC. FIG. 1b—Chemical reactions steps involved in the labeling of RNA using CD and 5-FC. The dotted arrow indicates the intermediary steps that are not shown. FIG. 1c Relative fold enrichment of mRNA isolated by Flura-tagging. 293T cells expressing CD or unlabeled controls were treated with 5-FC for the indicated times, labeled mRNAs were immunopurified using anti-BrdU antibody, and the levels of labeled mRNAs of the indicated genes relative to corresponding non-immunoprecipitated inputs normalized to immunopurified mRNAs from cells not expressing CD were quantified by RT-PCR. […] Cells were analyzed by immunofluorescence or harvested for RNA analysis. […] The fold enrichment of the indicated representative human genes over mouse housekeeping genes (mHPRT1 and mLDH1) was measured by RT-PCR (n=3±S.E.). […]
Next, we determined whether this system could be used to isolate RNA specifically from cells of interest that were admixed with a large proportion of other cells. […] After 12 h of 5-FC addition, 5-FU-labeled mRNAs were immunoprecipitated, and the proportion of human and mouse mRNA for representative housekeeping genes were determined by reverse transcriptase-polymerase chain reaction (RT-PCR). […]

## Nc1nc(=O)[nH]cc1F [5-FC, 5-fluorocytosine]
  enrichment of human mRNAs compared to mouse mRNAs: more than 10^5 fold
